Assay results taken from patent US20140081017A1, “Histone Deacetylase Inhibitors for Enhancing Activity of Antifungal Agents” (METHYLGENE INC., priority 2012, published 2014).
In brackets after ≈: the same amount, converted by molar mass. Where two headings read alike, the source gives them in different places.

Experiments:
Candida glabrata = assay: Minimal Inhibitory Concentration (MIC) assay, broth microdilution per CLSI; assay type: cell-based; conditions: Nakaseomyces glabratus, read-out: Minimum Inhibitory Concentrations against Yeast Isolates, Candida glabrata;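 further: two read times 24 hr and 48 hr of incubation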
Method in brief: (§1)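 Yeasts incubated ~24-48 hr at 35°C in MOPS-buffered RPMI (0.165 M, pH 7.0) containing DMSO-dissolved compound, following CLSI microdilution. Inoculum: 0.5 McFarland, diluted 1:100. MIC read visually as lowest concentration inhibiting growth (prominent-decrease endpoint for fluconazole).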

Candida albicans = assay: as above; assay type: cell-based; conditions: Candida albicans, read-out: Minimum Inhibitory Concentrations against Yeast Isolates, Candida albicans;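 further: two read times 24 hr and 48 hr of incubation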
Method in brief: as §1

Candida parapsilosis = assay: as above; assay type: cell-based; conditions: Lodderomyces parapsilosis, read-out: Minimum Inhibitory Concentrations against Yeast Isolates, Candida parapsilosis;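 further: two read times 24 hr and 48 hr of incubation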
Method in brief: as §1

C. glabrata = assay: Checkerboard FIC assay in combination with fluconazole (MIC alone and in combination, FICI); assay type: cell-based, Candida glabrata; conditions: for FICI of combination resulting in fluconazole MIC of: 2 ug/mL / FICI of combination resulting in fluconazole MIC of: 4 ug/mL / FICI of combination resulting in fluconazole MIC of: 8 ug/mL: FICI calculated using a fluconazole MIC of 16 μg/mL; for FICI of combination resulting in fluconazole MIC of: 2 ug/mL (value in parenthesis) / FICI of combination resulting in fluconazole MIC of: 4 ug/mL (value in parenthesis) / FICI of combination resulting in fluconazole MIC of: 8 ug/mL (value in parenthesis): FICI using a fluconazole MIC of 128 μg/mL; for MIC: Nakaseomyces glabratus; for Multiple of compound MIC to synergize fluconazole MIC to 2 ug/mL / Multiple of compound MIC to synergize fluconazole MIC to 4 ug/mL / Multiple of compound MIC to synergize fluconazole MIC to 8 ug/mL: concentration in combination as multiple of the compound's MIC alone; for Multiple of compound MIC to synergize fluconazole MIC to 2 ug/mL: fluconazole MIC 2 ug/mL; for Multiple of compound MIC to synergize fluconazole MIC to 4 ug/mL: fluconazole MIC 4 ug/mL; for Multiple of compound MIC to synergize fluconazole MIC to 8 ug/mL: fluconazole MIC 8 ug/mL; for Concentration of Methylgene compound to synergize fluconazole MIC to 2 ug/mL / Concentration of Methylgene compound to synergize fluconazole MIC to 4 ug/mL / Concentration of Methylgene compound to synergize fluconazole MIC to 8 ug/mL: in combination with fluconazole; for Concentration of Methylgene compound to synergize fluconazole MIC to 2 ug/mL: fluconazole MIC lowered to 2 ug/mL; for Concentration of Methylgene compound to synergize fluconazole MIC to 4 ug/mL: fluconazole MIC lowered to 4 ug/mL; for Concentration of Methylgene compound to synergize fluconazole MIC to 8 ug/mL: fluconazole MIC lowered to 8 ug/mL
Method in brief: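 A fluconazole synergy checkerboard was run against C. glabrata in MOPS-buffered RPMI (pH 7.0) for about 48 h at 35 °C. Each agent was diluted 2-fold, with one row and one column holding each agent alone for MIC determination. FICI was calculated from these MICs, using a 0.5 McFarland inoculum diluted 1:100 per CLSI.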

[1] = 24 hr reading (first value of cell 24 hr/48 hr)
[2] = 48 hr reading (second value of cell 24 hr/48 hr)
[3] = MIC of the example compound alone against C. glabrata in the checkerboard assay, approximately 48 hr, read-out: Methylgene MIC
[4] = test compound alone, C. glabrata, approx. 48 hr at 35° C., read-out: Compound MIC

| SMILES | MIC (Candida glabrata; [1]) | MIC (Candida glabrata; [2]) | MIC (Candida albicans; [1]) | MIC (Candida albicans; [2]) | MIC (Candida parapsilosis; [1]) | MIC (Candida parapsilosis; [2]) | FICI of combination resulting in fluconazole MIC of: 2 ug/mL (C. glabrata; C. glabrata) | FICI of combination resulting in fluconazole MIC of: 4 ug/mL (C. glabrata; C. glabrata) | FICI of combination resulting in fluconazole MIC of: 8 ug/mL (C. glabrata; C. glabrata) | FICI of combination resulting in fluconazole MIC of: 2 ug/mL (value in parenthesis) (C. glabrata; C. glabrata) | FICI of combination resulting in fluconazole MIC of: 4 ug/mL (value in parenthesis) (C. glabrata; C. glabrata) | FICI of combination resulting in fluconazole MIC of: 8 ug/mL (value in parenthesis) (C. glabrata; C. glabrata) | MIC (C. glabrata; [3]) | MIC (C. glabrata; [4]) | Multiple of compound MIC to synergize fluconazole MIC to 2 ug/mL (C. glabrata) | Multiple of compound MIC to synergize fluconazole MIC to 4 ug/mL (C. glabrata) | Multiple of compound MIC to synergize fluconazole MIC to 8 ug/mL (C. glabrata) | Concentration of Methylgene compound to synergize fluconazole MIC to 2 ug/mL (C. glabrata; C. glabrata) | Concentration of Methylgene compound to synergize fluconazole MIC to 4 ug/mL (C. glabrata; C. glabrata) | Concentration of Methylgene compound to synergize fluconazole MIC to 8 ug/mL (C. glabrata; C. glabrata) |
| --- | --- | --- | --- | --- | --- | --- | --- | --- | --- | --- | --- | --- | --- | --- | --- | --- | --- | --- | --- | --- |
| CN1CCN(CCS(=O)(=O)Nc2ccc(CCCCc3ccc(CC(=O)NO)cc3)cc2)CC1 [Example 52, N-hydroxy-2-(4-(4-(4-(2-(4-methylpiperazin-1-yl)ethylsulfonamido)phenyl)butyl)phenyl)acetamide] | 8 µg/mL (≈ 16.4 µM) | > 64 µg/mL | > 64 µg/mL | > 64 µg/mL | > 64 µg/mL | > 64 µg/mL | > 0.563 | > 0.625 | > 0.500 | > 0.516 | > 0.531 | > 0.313 | > 16 µg/mL | > 16 µg/mL | – | – | – | 16 µg/mL | 16 µg/mL | 8 µg/mL |
| CN1CCN(CCS(=O)(=O)Nc2cccc(CCCCc3ccc(CC(=O)NO)cc3)c2)CC1 [Example 54, N-hydroxy-2-(4-(4-(3-(2-(4-methylpiperazin-1-yl)ethylsulfonamido)phenyl)butyl)phenyl)acetamide] | 16 µg/mL (≈ 32.7 µM) | > 64 µg/mL | > 64 µg/mL | > 64 µg/mL | > 64 µg/mL | > 64 µg/mL | 0.313 | 0.250 | 0.313 | 0.266 | 0.156 | 0.125 | > 16 µg/mL | > 16 µg/mL | – | – | – | 8 µg/mL | 4 µg/mL | 2 µg/mL |
| CC(C(=O)NO)c1ccc(CCCCc2ccccc2)cc1 (centres unmarked) [Example 55, N-hydroxy-2-(4-(4-phenylbutyl)phenyl)propanamide] | 0.25 µg/mL (≈ 0.841 µM) | 0.5 µg/mL (≈ 1.68 µM) | 2 µg/mL (≈ 6.72 µM) | 4 µg/mL (≈ 13.4 µM) | 0.5 µg/mL (≈ 1.68 µM) | 1 µg/mL (≈ 3.36 µM) | 0.303 | 0.365 | 0.370 | 0.256 | 0.271 | 0.183 | 0.5 µg/mL | 0.5 µg/mL | (¼x) | (¼x) | (⅛x) | 0.12 µg/mL | 0.12 µg/mL | 0.06 µg/mL |
| CC(C)(C(=O)NO)c1ccc(CCCCc2ccccc2)cc1 [Example 56, N-hydroxy-2-methyl-2-(4-(4-phenylbutyl)phenyl)propanamide] | 0.25 µg/mL (≈ 0.803 µM) | 0.5 µg/mL (≈ 1.61 µM) | > 2 µg/mL | > 2 µg/mL | > 2 µg/mL | > 2 µg/mL | 0.563 | 0.625 | 0.490 | 0.516 | 0.531 | 0.303 | 0.5 µg/mL | 0.5 µg/mL | (½x) | (½x) | (¼x) | 0.25 µg/mL | 0.25 µg/mL | 0.12 µg/mL |
| O=C(Cc1ccc(CCC(O)Cc2ccccc2)cc1)NO (centres unmarked) [Example 57, N-hydroxy-2-(4-(3-hydroxy-4-phenylbutyl)phenyl)acetamide] | 16 µg/mL (≈ 53.4 µM) | > 64 µg/mL | > 64 µg/mL | > 64 µg/mL | > 64 µg/mL | > 64 µg/mL | 0.563 | 0.625 | 0.500 | 0.516 | 0.531 | 0.313 | > 16 µg/mL | > 16 µg/mL | – | – | – | 16 µg/mL | 16 µg/mL | 8 µg/mL |

Further lines, results first:

| MIC (Candida glabrata; [1]) | MIC (Candida glabrata; [2]) | MIC (Candida albicans; [1]) | MIC (Candida albicans; [2]) | MIC (Candida parapsilosis; [1]) | MIC (Candida parapsilosis; [2]) | FICI of combination resulting in fluconazole MIC of: 2 ug/mL (C. glabrata; C. glabrata) | FICI of combination resulting in fluconazole MIC of: 4 ug/mL (C. glabrata; C. glabrata) | FICI of combination resulting in fluconazole MIC of: 8 ug/mL (C. glabrata; C. glabrata) | FICI of combination resulting in fluconazole MIC of: 2 ug/mL (value in parenthesis) (C. glabrata; C. glabrata) | FICI of combination resulting in fluconazole MIC of: 4 ug/mL (value in parenthesis) (C. glabrata; C. glabrata) | FICI of combination resulting in fluconazole MIC of: 8 ug/mL (value in parenthesis) (C. glabrata; C. glabrata) | MIC (C. glabrata; [3]) | MIC (C. glabrata; [4]) | Multiple of compound MIC to synergize fluconazole MIC to 2 ug/mL (C. glabrata) | Multiple of compound MIC to synergize fluconazole MIC to 4 ug/mL (C. glabrata) | Multiple of compound MIC to synergize fluconazole MIC to 8 ug/mL (C. glabrata) | Concentration of Methylgene compound to synergize fluconazole MIC to 2 ug/mL (C. glabrata; C. glabrata) | Concentration of Methylgene compound to synergize fluconazole MIC to 4 ug/mL (C. glabrata; C. glabrata) | Concentration of Methylgene compound to synergize fluconazole MIC to 8 ug/mL (C. glabrata; C. glabrata) | SMILES |
| --- | --- | --- | --- | --- | --- | --- | --- | --- | --- | --- | --- | --- | --- | --- | --- | --- | --- | --- | --- | --- |
| 4 µg/mL (≈ 8.41 µM) | 16 µg/mL (≈ 33.6 µM) | > 64 µg/mL | > 64 µg/mL | > 64 µg/mL | > 64 µg/mL | 0.313 | 0.250 | 0.375 | 0.266 | 0.156 | 0.188 | 16 µg/mL | 16 µg/mL | (¼x) | (⅛x) | (⅛x) | 4 µg/mL | 2 µg/mL | 2 µg/mL | O=C(Cc1ccc(CCCCc2ccc(NS(=O)(=O)CCN3CCOCC3)cc2)cc1)NO [Example 51, N-hydroxy-2-(4-(4-(4-(2-morpholinoethylsulfona-mido)phenyl)butyl)phenyl)acetamide] |
| 16 µg/mL (≈ 33.6 µM) | 32 µg/mL (≈ 67.3 µM) | > 64 µg/mL | > 64 µg/mL | > 64 µg/mL | > 64 µg/mL | 0.313 | 0.250 | 0.375 | 0.266 | 0.156 | 0.188 | 16 µg/mL | 16 µg/mL | (¼x) | (⅛x) | (⅛x) | 4 µg/mL | 2 µg/mL | 2 µg/mL | O=C(Cc1ccc(CCCCc2cccc(NS(=O)(=O)CCN3CCOCC3)c2)cc1)NO [Example 53, N-hydroxy-2-(4-(4-(3-(2-morpholinoethylsulfona-mido)phenyl)butyl)phenyl)acetamide] |
